Results as given in ChEMBL document CHEMBL1134242 (Bioorg Med Chem Lett, 2001).

Tests used:
[1] = target: Sodium-dependent dopamine transporter (Rattus norvegicus, UniProt P23977); assay: Ability to inhibit binding of [3H]WIN-35428 to dopamine transporter in rat caudate putamen; type: tissue-based
[2] = target: Sodium-dependent serotonin transporter (Rattus norvegicus, UniProt P31652); assay: Ability to inhibit binding of [3H]paroxetine to Serotonin transporter in rat caudate putamen; type: tissue-based
Chain of Sodium-dependent serotonin transporter (P31652 whole entry): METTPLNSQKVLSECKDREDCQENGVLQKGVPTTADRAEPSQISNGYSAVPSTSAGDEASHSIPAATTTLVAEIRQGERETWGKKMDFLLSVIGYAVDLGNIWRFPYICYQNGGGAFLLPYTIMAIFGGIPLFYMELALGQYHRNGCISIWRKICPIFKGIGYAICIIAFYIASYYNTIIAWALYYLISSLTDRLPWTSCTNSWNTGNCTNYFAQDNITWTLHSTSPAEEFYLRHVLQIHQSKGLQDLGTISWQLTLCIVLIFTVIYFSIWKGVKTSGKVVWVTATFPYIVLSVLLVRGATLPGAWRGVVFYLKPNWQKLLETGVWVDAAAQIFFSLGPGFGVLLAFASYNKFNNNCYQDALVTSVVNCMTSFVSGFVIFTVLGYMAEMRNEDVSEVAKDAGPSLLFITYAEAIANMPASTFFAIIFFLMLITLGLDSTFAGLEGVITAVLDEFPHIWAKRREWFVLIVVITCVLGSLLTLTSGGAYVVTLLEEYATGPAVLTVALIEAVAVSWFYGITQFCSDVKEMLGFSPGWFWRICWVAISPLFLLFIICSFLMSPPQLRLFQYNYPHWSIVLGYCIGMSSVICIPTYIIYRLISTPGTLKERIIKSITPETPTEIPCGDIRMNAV

Rattus norvegicus = species: Rattus norvegicus; assay: Ability to inhibit high-affinity uptake of [3H]DA into striatal nerve endings (synaptosomes); type: functional; conditions: Brain

Chain of Sodium-dependent dopamine transporter (P23977 whole entry): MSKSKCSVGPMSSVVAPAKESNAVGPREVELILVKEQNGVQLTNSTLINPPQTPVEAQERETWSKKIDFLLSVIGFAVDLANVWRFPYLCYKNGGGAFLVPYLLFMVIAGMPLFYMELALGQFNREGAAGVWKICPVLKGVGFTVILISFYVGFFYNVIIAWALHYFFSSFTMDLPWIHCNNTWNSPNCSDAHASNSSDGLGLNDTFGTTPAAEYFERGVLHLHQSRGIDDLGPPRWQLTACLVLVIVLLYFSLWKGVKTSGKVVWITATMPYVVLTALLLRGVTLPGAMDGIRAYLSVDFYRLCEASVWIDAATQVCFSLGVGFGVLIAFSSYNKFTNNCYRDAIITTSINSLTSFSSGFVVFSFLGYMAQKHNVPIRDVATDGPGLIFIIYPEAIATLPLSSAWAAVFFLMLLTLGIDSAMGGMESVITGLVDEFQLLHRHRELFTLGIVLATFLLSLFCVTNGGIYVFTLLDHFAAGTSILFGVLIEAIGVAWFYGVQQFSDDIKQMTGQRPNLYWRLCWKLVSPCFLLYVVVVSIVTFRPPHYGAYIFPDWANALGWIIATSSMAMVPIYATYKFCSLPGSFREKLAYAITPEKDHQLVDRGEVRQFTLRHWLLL

Compound | IC50 [1] | IC50 [2] | IC50 (Rattus norvegicus)
CO[C@H]1CC2C[C@H](OC(c3ccccc3)c3ccc(Cl)cc3)CC1N2C (stereo partly drawn) | 750 nM | > 100000 nM | 519 nM
CO[C@@H]1CC2C[C@@H](OC(c3ccccc3)c3ccc(Cl)cc3)CC1N2C (stereo partly drawn) | 32 nM | > 100000 nM | 179 nM
c1ccc(C(O[C@H]2C[C@H]3CC[C@@H](C2)O3)c2ccccc2)cc1 | > 10000 nM |  | 
Fc1ccc(C(O[C@H]2C[C@H]3CC[C@@H](C2)O3)c2ccc(F)cc2)cc1 | 2000 nM |  | 
CO[C@H]1CC2C[C@H](OC(c3ccc(F)cc3)c3ccc(F)cc3)CC1N2C (stereo partly drawn) | 95 nM | > 100000 nM | 165 nM
CO[C@@H]1CC2C[C@@H](OC(c3ccc(F)cc3)c3ccc(F)cc3)CC1N2C (stereo partly drawn) | 25 nM | > 100000 nM | 104 nM
CO[C@H]1CC2C[C@H](OC(c3ccccc3)c3ccccc3)CC1N2C (mixture of isomers) | 650 nM | > 100000 nM | 2280 nM
COC(=O)[C@@H]1C2CC[C@@H](C[C@@H]1OC(=O)c1ccccc1)N2C (single isomer, unassigned) [COCAINE] |  |  | 208 nM
